The values that follow come from patent EP0655065B1, “27-HYDROXYRAPAMYCIN AND DERIVATIVES THEREOF” (AMERICAN HOME PRODUCTS CORPORATION, priority 1992, dated 1994).

Data set [1] is described as follows: half life (stability) in 0.1 M phosphate buffer. In kind it is physicochemical. The following applies: for half-life: 0.1 m phosphate buffer, pH 7.4. The source says: The 27-hydroxyrapamycin derivatives of formulas II - X are also expected to resist ring degredative reactions better than rapamycin and 31- and/or 42- substituted rapamycin derivatives of rapamycin.

In data set [2] the test system is pinch skin graft from male DBA/2 donors transplanted to male BALB/c recipients. Kind of data set: pinch skin graft survival time. In kind it is in vivo. The following applies: mean graft survival time, intraperitoneally. The protocol: A representative compound of this invention was also evaluated in an in vivo test procedure designed to determine the survival time of pinch skin graft from male DBA/2 donors transplanted to male BALB/c recipients. […] Briefly, a pinch skin graft from the donor is grafted on the dorsum of the recipient as a homograft, and an autograft is used as control in the same region. The recipients are treated with either varying concentrations of cyclosporin A as test control or the test compound, intraperitoneally. Untreated recipients serve as rejection control. The graft is monitored daily and observations are recorded until the graft becomes dry and forms a blackened scab. This is considered as the rejection day. The mean graft survival time (number of days ± S.D.) of the drug treatment group is compared with the control group.

Data set [3] deals with cells from the thymus of normal BALB/c mice. The data set can be described thus: comitogen-induced thymocyte proliferation procedure (LAF). In kind it is cell-based. The following applies: for IC50: read-out: L A F (IC50). The protocol:
The comitogen-induced thymocyte proliferation procedure (LAF) was used as an in vitro measure of the immunosuppressive effects of representative compounds. Briefly, cells from the thymus of normal BALB/c mice are cultured for 72 hours with PHA and IL-1 and pulsed with tritiated thymidine during the last six hours. Cells are cultured with and without various concentrations of rapamycin, cyclosporin A, or test compound. Cells are harvested and incorporated radioactivity is determined. Inhibition of lymphoproliferation is assessed as percent change in counts per minute from non-drug treated controls. The results are expressed as an IC50.

Several values for one entry are separate records, joined by “and”; a condition that tells them apart may be missing. Identical values can stand only once. Like-named read-outs stand apart in the source and are kept apart here.

One may read the half-life as the time needed for the level to fall by half in the phase considered. Higher therefore signals slow loss. By IC50 is commonly meant the concentration that gives 50% inhibition. `CO[C@H]1C[C@@H]2CC[C@@H](C)[C@@](O)(O2)C(=O)C(=O)N2CCCC[C@H]2C(=O)O[C@H]([C@H](C)C[C@@H]2CC[C@@H](O)[C@H](OC)C2)CC(=O)[C@H](C)/C=C(\C)[C@@H](O)[C@@H](OC)C(=O)[C@H](C)C[C@H](C)/C=C/C=C/C=C/1C` [Rapamycin] showed a half-life in data set [1] of 11.8 h. Besides, the “Skin Graft (days + SD)” value in data set [2] (dose of 4 mg/kg) came to 12.0 ± 1.7 days. Also, the half-inhibitory concentration (IC50) in data set [3] (Mus musculus, Thymocyte, 72 h) was 4.8 nM.

In data set [1] (0.1 M phosphate buffer (pH 7.4, 37° C)), 27-Hydroxyrapamycin displayed a half life of 17.5 h. In addition, the “Skin Graft (days + SD)” value in data set [2] (dose of 4 mg/kg, 4 mg/kg) is 8.5 ± 1.2 days and 8.17 ± 0.75 days and 8.00 ± 0.63 days; in data set [2] (dose of 16 mg/kg, 16 mg/kg), 9.17 ± 0.98^+ days and 9.17 ± 0.75^+ days. The 50% inhibitory concentration (IC50) in data set [3] (thymocytes cultured 72 hours with PHA and IL-1, tritiated thymidine incorporation) was 3.7 nM.

A word on the inhibition: it is the change of the read-out against control, counted positive when it falls. In turn, `CO[C@H]1C[C@@H]2CC[C@@H](C)[C@@](O)(O2)C(=O)C(=O)N2CCCC[C@H]2C(=O)O[C@H]([C@H](C)C[C@@H]2CC[C@@H](O)[C@H](OC)C2)CC(OC(C)=O)[C@H](C)/C=C(\C)[C@@H](O)[C@@H](OC)C(=O)[C@H](C)C[C@H](C)/C=C/C=C/C=C/1C` (some centres unmarked) [Example 5, 27-Hydroxyrapamycin-27-ester with acetic acid] gave a half-life in data set [1] of 34 h. Testing at 0.1 µM in data set [3] (Mus musculus, T-cell, at 0.1 µM) gave an inhibition of 69%. This compound returned an inhibition at 1 µM in data set [3] (Mus musculus, T-cell, at 1 µM) of 94%. For the same compound, in data set [3] (Mus musculus, Thymocyte, thymocytes cultured 72 hours with PHA and IL-1, tritiated thymidine incorporation), the 50% inhibitory concentration (IC50) was determined as 99 nM.
